Results reported in patent publication US11130733B2, “4-OXO-alkylated tetramic acid compound, preparation method and use thereof” (BEIJING JOEKAI BIOTECH. LLC, priority 2017, dated 2021).
Several values for one entry are separate records, joined by “and”; a condition that tells them apart may be missing. Equal entries are not always repeated. Where two headings read alike, the source gives them in different places.

Test: Pharmacokinetic evaluation, plasma and brain concentrations
Assay type: in vivo, ICR mice
Conditions: for concentration at 0.083 h / concentration at 0.25 h / concentration at 0.5 h / concentration at 1 h / concentration at 2 h / concentration at 4 h / concentration at 6 h / concentration at 8 h: male, ICR, mouse
Text: Distribution of a medicament in the body is one of the important indicators to determine the dose and efficacy of the medicament. Thus, excellent candidate compounds should have good pharmacokinetic characteristics. In addition, since the compound of the present invention is intended to be used for the treatment of Alzheimer's disease, which is a disease of the central nervous system, the distribution pattern of the compound in the brain and the blood is also one of the subjects to be investigated. In this experiment, compound 50561 was administered to mice […] or by gavage, and the concentrations of the compound in blood and brain were measured at specific time points to determine the pharmacokinetic parameters.
Forty-eight male ICR mice purchased from Shanghai Sippr-BK Lab. Animal Co. Ltd were used in this experiment. The oral group was fasted for 10-14 hours before administration, and feeding was restored 4 hours after administration. Samples were collected from the intravenous administration group 0.083 h, 0.25 h, 0.5 h, 1 h, 2 h, 4 h, 8 h, and 24 h after administration, respectively: while for the oral administration group, about 0.5 mL of blood was collected from the heart 0.25 h, 0.5 h, 1 h, 2 h, 4 h, 6 h, 8 h, and 24 h after administration, respectively. Heparin sodium was used for anticoagulation. Blood samples were collected and placed on ice, and plasma was separated by centrifugation (centrifugation conditions: 8000 rpm, 6 minutes, 4C). The collected plasma was stored at −80° C. before analysis. After collecting plasma samples, brain tissues were collected, washed with normal saline, water-absorbed by filter paper, weighed immediately, and then placed in labeled tubes (one tube for one brain tissue). The samples to be tested were temporarily placed on ice before being stored in a −80° C. refrigerator.
The analysis methods of biological samples and the analysis of all samples were done by Medicilon Pharmaceutical Technology (Shanghai) Co., Ltd. The intraday accuracy evaluation of the quality control samples was carried out while analyzing the samples, and the accuracy of over 66.7% of the quality control samples was required to be between 80-120%.
When calculating the pharmacokinetic parameters, the BLQ before Cmax (including “No peak”) was calculated as 0; BLQ occurring after Cmax (including “No peak”) was not involved in the calculation. WinNonlin Professional V 5.2 (Pharsight, USA) was adopted to calculate the following pharmacokinetic parameters: AUC(0-t), AUC(0-∞), T1/2, MRT(0-∞), Cmax, and Tmax. The tissue/plasma ratio was to be calculated by the following formula based on the blood concentration data at different time points: Tissue/plasma ratio (mL/g)=tissue blood concentration/plasma blood concentration.

[1] = brain, iv, 1 mg/kg, IV 1 mg/kg, read-out: Brain tissue concentration, Mean
[2] = brain, iv, 1 mg/kg, IV 1 mg/kg, read-out: Brain tissue concentration, individual mice
[3] = brain, po, 10 mg/kg, PO 10 mg/kg, read-out: Brain tissue concentration, Mean
[4] = brain, po, 10 mg/kg, PO 10 mg/kg, read-out: Brain tissue concentration, individual mice
[5] = plasma, iv, 1 mg/kg, IV 1 mg/kg, read-out: Blood concentration, Mean
[6] = plasma, iv, 1 mg/kg, IV 1 mg/kg, read-out: Blood concentration, individual mice
[7] = plasma, po, 10 mg/kg, PO 10 mg/kg, read-out: Blood concentration, Mean
[8] = plasma, po, 10 mg/kg, PO 10 mg/kg, read-out: Blood concentration, individual mice

O=C1C=C(OCc2ccc(F)cc2)[C@H](Cc2ccccc2)N1 [Compound 50561]
Brain/plasma ratio, Mean (PO 10 mg/kg, 6 hr): 2.511 mL/G | Blood concentration, individual mice (PO 10 mg/kg, 6 hr, 10 mg/kg): 6.30 ng/mL and 8.82 ng/mL | Brain tissue concentration, individual mice (PO 10 mg/kg, 6 hr, 10 mg/kg): 11.72 ng/G and 17.40 ng/G and 25.83 ng/G | Brain/plasma ratio, individual mice (PO 10 mg/kg, 6 hr, 10 mg/kg): 1.839 mL/G and 2.764 mL/G and 2.929 mL/G | Brain/plasma ratio, Mean (PO 10 mg/kg, 8 hr): 2.009 mL/G | Blood concentration, individual mice (PO 10 mg/kg, 8 hr, 10 mg/kg): 4.77 ng/mL and 3.88 ng/mL and 1.63 ng/mL | Brain tissue concentration, individual mice (PO 10 mg/kg, 8 hr, 10 mg/kg): 9.49 ng/G and BLQ | Brain/plasma ratio, individual mice (PO 10 mg/kg, 8 hr, 10 mg/kg): 1.575 mL/G and 2.443 mL/G | Blood concentration, individual mice (PO 10 mg/kg, 24 hr): BLQ | Brain tissue concentration, individual mice (PO 10 mg/kg, 24 hr): BLQ | content in brain tissue compared with blood (after intravenous injection and oral administration): higher than that in the blood | concentration at 0.083 h [1]: 738 ng/g | concentration at 0.25 h [1]: 454 ng/g | concentration at 0.25 h [2]: 462 ng/g | concentration at 0.5 h [1]: 204 ng/g | concentration at 0.5 h [2]: 148 ng/g | concentration at 1 h [1]: 43.1 ng/g | concentration at 1 h [2]: 42.6 ng/g | concentration at 0.25 h [3]: 1220 ng/g | concentration at 0.25 h [4]: 1470 ng/g | concentration at 0.5 h [3]: 1600 ng/g | concentration at 1 h [3]: 1120 ng/g | concentration at 1 h [4]: 906 ng/g | concentration at 2 h [3]: 335 ng/g | concentration at 4 h [3]: 41.7 ng/g | concentration at 6 h (brain, po, 10 mg/kg, PO 10 mg/kg, 6 hr, read-out: Brain tissue concentration, Mean): 18.3 ng/g | concentration at 8 h (brain, po, 10 mg/kg, PO 10 mg/kg, 8 hr, read-out: Brain tissue concentration, Mean): 8.5 ng/g | concentration at 8 h (brain, po, 10 mg/kg, PO 10 mg/kg, 8 hr, read-out: Brain tissue concentration, individual mice): 7.52 ng/g | concentration at 0.083 h [5]: 302 ng/mL | concentration at 0.25 h [5]: 195 ng/mL | concentration at 0.25 h [6]: 188 ng/mL | concentration at 0.5 h [5]: 82 ng/mL | concentration at 0.5 h [6]: 58.1 ng/mL | concentration at 1 h [5]: 15.3 ng/mL | concentration at 0.25 h [7]: 653 ng/mL | concentration at 0.25 h [8]: 754 ng/mL | concentration at 0.5 h [7]: 727 ng/mL | concentration at 0.5 h [8]: 1020 ng/mL | concentration at 1 h [7]: 499 ng/mL | concentration at 1 h [8]: 365 ng/mL | concentration at 2 h [7]: 144 ng/mL | concentration at 4 h [7]: 18.9 ng/mL | concentration at 6 h (plasma, po, 10 mg/kg, PO 10 mg/kg, 6 hr, read-out: Blood concentration, Mean): 7.16 ng/mL | concentration at 6 h (plasma, po, 10 mg/kg, PO 10 mg/kg, 6 hr, read-out: Blood concentration, individual mice): 6.37 ng/mL | concentration at 8 h (plasma, po, 10 mg/kg, PO 10 mg/kg, 8 hr, read-out: Blood concentration, Mean): 3.43 ng/mL
